One may read the Ki as the equilibrium dissociation constant of an inhibitor or competing ligand from its target.

Consider 41 molecules from patent publication US5914236A, “PCT-65 serotonin receptor” (United States of America, priority 1995, dated 1999).

For experiment [1], the target named is T1, PCT-65 receptor (Rattus norvegicus, UniProt P32305).
T1 construct: expressed in transfected cells; host or cells: COS-7 cells (transient, calcium phosphate, pSRα-65)
Put plainly: [3H]-5-HT competition binding to PCT-65 receptor in membranes of transfected COS-7 cells. As to conditions: competing with [3H]-5-HT (1 nM), COS-7 membranes, 37 °C; geometric mean ± SEM (n=3). On the procedure:
(§1) This plasmid construct (pSRα-65) was introduced into COS-7 cells by calcium phosphate-mediated transfection.
Specifically, transfected cells were scraped into PBS with 5 mM EDTA, spun, polytroned, spun, suspended in 100 mM Tris, 20 mM MgSO4, 1 mM EDTA, pH7.7. 0.5 ml of this solution containing 10-25 μg protein was added to 0.5 ml of a 2 mM ascorbic acid solution containing the ligand and drugs and incubated for 30 min at 37° C. Filtration was performed on GF/C paper (0.1% PEI solution pre-treatment) with a 10 ml rinse.

In experiment [2] the target is T1, PCT-65 receptor. The experiment is described as follows: [3H]-LSD competition binding to PCT-65 receptor in membranes of transfected COS-7 cells. As to conditions: for Ki: competing with [3H]-LSD (1.5-2.2 nM), COS-7 membranes, pH 7.4, 37 °C, 60 min, geometric mean ± SEM (n=3).
Text: as §1

Experiment [3] deals with T1, PCT-65 receptor. Put plainly: Competition binding to PCT-65 receptor (radioligand not specified). Particulars: for affinity for PCT-65 (in words): expressed in mammalian cells (COS-7).
Another experiment concerns 5HT1A receptors. Particulars: background; cited from earlier work.
Setting [4] is: radioligand not given, read-out: Ki (compounds not in Table 1).

T1 sequence (P32305 45-448): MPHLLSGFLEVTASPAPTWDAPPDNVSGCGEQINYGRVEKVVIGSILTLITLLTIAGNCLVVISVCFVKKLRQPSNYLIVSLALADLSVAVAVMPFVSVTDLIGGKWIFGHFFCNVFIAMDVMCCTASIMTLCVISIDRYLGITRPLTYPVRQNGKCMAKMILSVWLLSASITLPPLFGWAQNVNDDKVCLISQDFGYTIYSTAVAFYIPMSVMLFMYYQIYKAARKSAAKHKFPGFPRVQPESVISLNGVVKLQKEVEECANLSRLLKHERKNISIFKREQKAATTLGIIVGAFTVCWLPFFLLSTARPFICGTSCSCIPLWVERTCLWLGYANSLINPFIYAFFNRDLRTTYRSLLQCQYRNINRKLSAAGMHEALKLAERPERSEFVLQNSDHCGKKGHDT

`c1ccc2c(N3CCNCC3)cccc2c1` [1(1-Napthyl)piperazine]: the values for the Ki at PCT-65 receptor [1] and at PCT-65 receptor [2] were 18.4 ± 0.77 nM and 33.8 ± 1.68 nM, respectively. In the same order, the values of `COc1ccccc1N1CCNCC1` [2-MPP] are 125 ± 8.4 nM and 244 ± 16.5 nM. Take `NCCc1c[nH]c2ccc(C(N)=O)cc12` [5-Carboxamidotryptamine]: the Ki on PCT-65 receptor [1] stood at 0.16 ± 0.05 nM; on PCT-65 receptor [2], 0.33 ± 0.01 nM. In the case of `NCCc1c[nH]c2ccc(O)cc12` [5-Hydroxytryptamine, 5-hydroxytryptamine], the “affinity for PCT-65 (in words)” value at PCT-65 receptor [3] is “high affinity”. Take `COc1ccc2[nH]cc(CCN(C)C)c2c1` [5-Methoxy-N,N-dimethytryptamine]: the Ki at PCT-65 receptor [1] was 8.26 ± 0.73 nM; at PCT-65 receptor [2], 20.9 ± 0.86 nM. Turning to `CCCN(CCC)C1CCc2cccc(O)c2C1` (stereo not drawn) [8-OH-DPAT], the figures for the Ki on PCT-65 receptor [1] and at PCT-65 receptor [2] were 35 ± 5.62 nM and 35.4 ± 5.24 nM, respectively. The “affinity for PCT-65 (in words)” value at PCT-65 receptor [3] is reported as “relatively low affinity”. As for `CN(C)CCC=C1c2ccccc2CCc2ccccc21` [Amitriptyline], the Ki is 92.8 ± 15.8 nM at PCT-65 receptor [1], below 100 nM on PCT-65 receptor [3] and 124 ± 13.4 nM on PCT-65 receptor [2]. For the same molecule, the “affinity for PCT-65 (in words)” value at PCT-65 receptor [3] is given as “high affinity”. Turning to `CCn1c(=O)n(C(=O)NC2CC3CCC(C2)N3C)c2ccccc21` (stereo not drawn) [BIMU1], the Ki on PCT-65 receptor [3] (setting [4]) is above 1300 nM. As to `CC(C)n1c(=O)n(C(=O)NC2CC3CCC(C2)N3C)c2ccccc21` (stereo not drawn) [BIMU8], the Ki on PCT-65 receptor [3] was above 1300 nM. Consider `COc1cc(N)c(Cl)cc1C(=O)NC1CCN2CCCC1C2` (stereo not drawn) [BRL24294], for which the Ki on PCT-65 receptor [3] (setting [4]) was above 1300 nM. Still for that read-out and setting: with `CN1C2CCCC1CC(NC(=O)c1nn(C)c3ccccc13)C2` (stereo not drawn) [BRL43694] the figure was above 1300 nM. With `CC(C)C[C@H]1C(=O)N2CCC[C@H]2[C@]2(O)O[C@](NC(=O)[C@@H]3C=C4c5cccc6[nH]c(Br)c(c56)C[C@H]4N(C)C3)(C(C)C)C(=O)N12` [Bromocriptine], the Ki at PCT-65 receptor [1] was determined as 48.8 ± 7.9 nM; at PCT-65 receptor [2], 10.7 ± 0.47 nM. Consider `CN(C)CCCC1(c2ccc(F)cc2)OCc2cc(C#N)ccc21` (stereo not drawn) [Citalopram], for which the Ki at PCT-65 receptor [3] is above 1300 nM.

Take `CN1C2CCC1CC(NC(=O)n1c(=O)[nH]c3ccccc31)C2` (stereo not drawn) [DAU6215]: the Ki at PCT-65 receptor [3] (setting [4]) was above 1300 nM. `CNCCCN1c2ccccc2CCc2ccccc21` [Desipramine] gave a Ki on PCT-65 receptor [3] above 1300 nM. In the case of `NCCc1ccc(O)c(O)c1` [Dopamine], the Ki at PCT-65 receptor [3] (setting [4]) is above 1300 nM. Regarding `CCNC(C)Cc1cccc(C(F)(F)F)c1` (stereo not drawn) [Fenflurmine], on PCT-65 receptor [3], the Ki is above 1300 nM.

Take `NCCc1c[nH]cn1` [Histamine]: the Ki at PCT-65 receptor [3] (setting [4]) is above 1300 nM.

In the case of `c1ccc2c(c1)OCC(C1=NCCN1)O2` (stereo not drawn) [Idazoxan], the Ki at PCT-65 receptor [3] (setting [4]) was above 1300 nM. As to `O=C(c1ccc(F)cc1)C1CCN(CCn2c(=O)[nH]c3ccccc3c2=O)CC1` [Ketanserin], the results for the Ki on PCT-65 receptor [1] and at PCT-65 receptor [2] were 265 ± 32.1 nM and 207 ± 19.6 nM, respectively. Consider `CCN(CC)C(=O)[C@@H]1C=C2c3cccc4[nH]cc(c34)C[C@H]2N(C)C1` [LSD], for which the “affinity for PCT-65 (in words)” value on PCT-65 receptor [3] is “relatively high affinity”. As to `CN1C2CCC1CC(NC(=O)c1nn(C)c3ccccc13)C2` (stereo not drawn) [LY-278584], the Ki on PCT-65 receptor [3] was above 1300 nM. Take `CN1CCN(C2=Nc3ccccc3Oc3ccc(Cl)cc32)CC1` [Loxapine]: the results for the inhibition constant (Ki) at PCT-65 receptor [1] and on PCT-65 receptor [2] were 133 ± 36.1 nM and 172 ± 7.8 nM, respectively. For the same molecule, the “affinity for PCT-65 (in words)” value on PCT-65 receptor [3] was “low affinity”; at PCT-65 receptor [3] (listed as loxipine), “high affinity”. For the molecule `CN1[C@@H]2CC[C@H]1C[C@@H](OC(=O)c1cc(Cl)cc(Cl)c1)C2` [MDL7222], the Ki at PCT-65 receptor [3] (setting [4]) was above 1300 nM. On PCT-65 receptor [3], `COc1ccc2[nH]cc(CCNC(C)=O)c2c1` [Melotonin] gave a Ki above 1300 nM. With `CN1C[C@@H](NS(=O)(=O)N(C)C)C[C@@H]2c3cccc4c3c(cn4C)C[C@H]21` [Mesulergine], the Ki on PCT-65 receptor [1] was found to be 21.1 ± 2.19 nM; on PCT-65 receptor [2], 7.13 ± 0.39 nM. In addition, the “affinity for PCT-65 (in words)” value on PCT-65 receptor [3] is recorded as “relatively high affinity”. `CN1C[C@H](CNC(=O)OCc2ccccc2)C[C@@H]2c3cccc4c3c(cn4C)C[C@H]21` [Metergoline]: the Ki came to 6.21 ± 1 nM on PCT-65 receptor [1] and 2.04 ± 0.15 nM on PCT-65 receptor [2]. The “potency in competition with [3H]-LSD compared with [3H]-5-HT (in words)” value on PCT-65 receptor [2] (relative to competition with [3H]-5-HT) is “somewhat greater potency”. Take `CC[C@@H](CO)NC(=O)[C@@H]1C=C2c3cccc4c3c(cn4C)C[C@H]2N(C)C1` [Methysergide]: the Ki was 13.4 ± 0.8 nM on PCT-65 receptor [1] and 12.6 ± 0.84 nM at PCT-65 receptor [2]. As to `COc1ccccc1N1CCN(CCCCN2C(=O)c3ccccc3C2=O)CC1` [NAN-190], the Ki on PCT-65 receptor [3] (setting [4]) is above 1300 nM. Turning to `NCC(O)c1ccc(O)cc1` (stereo not drawn) [Octopamine], the Ki at PCT-65 receptor [3] was above 1300 nM. `CCCN1C[C@H](CSC)C[C@@H]2c3cccc4[nH]cc(c34)C[C@H]21` [Pergolide]: the Ki at PCT-65 receptor [1] was 1.01 ± 0.03 nM; on PCT-65 receptor [2], 4.78 ± 0.18 nM. Besides, the “affinity for PCT-65 (in words)” value at PCT-65 receptor [3] was “relatively high affinity”. `CC(C)NCC(O)COc1cccc2[nH]ccc12` (stereo not drawn) [Pindolol] yielded a Ki at PCT-65 receptor [3] above 1300 nM. `c1ccc2nc(N3CCNCC3)ccc2c1` [Quipazine]: the Ki on PCT-65 receptor [3] (setting [4]) is above 1300 nM. Regarding `Cc1nc2sccn2c(=O)c1CCN1CCC(=C(c2ccc(F)cc2)c2ccc(F)cc2)CC1` [Ritanserin], the results for the Ki at PCT-65 receptor [1] and on PCT-65 receptor [2] were 15 ± 3.4 nM and 21.7 ± 2.1 nM, respectively.

Consider `CNS(=O)(=O)Cc1ccc2[nH]cc(CCN(C)C)c2c1` [Sumatriptan], for which the Ki at PCT-65 receptor [1] was 251 ± 36.1 nM. Consider `FC(F)(F)c1cccc(N2CCNCC2)c1` [TFMPP], for which the Ki is 236 ± 5.5 nM at PCT-65 receptor [1] and 533 ± 33 nM on PCT-65 receptor [2]. In the same order, the values of `NCCc1c[nH]c2ccccc12` [Tryptamine] are 16.4 ± 1.01 nM and 32.9 ± 0.76 nM. Regarding `COc1cc(N)c(Cl)cc1C(=O)NC1CN2CCC1CC2` (stereo not drawn) [Zacopride], on PCT-65 receptor [3] (setting [4]), the Ki is above 1300 nM. Take `CC1(C)CC(=O)N(CCCCN2CCN(c3ncccn3)CC2)C(=O)C1` [gepirone]: in the experiment with 5HT1A receptors, the “affinity for 5HT1A receptors in the brain (in words)” value is listed as “high affinities”. As to `O=C1c2ccccc2S(=O)(=O)N1CCCCN1CCN(c2ncccn2)CC1` [ipsapirone], the “affinity for 5HT1A receptors in the brain (in words)” value in the experiment with 5HT1A receptors is reported as “high affinities”.

On to `Clc1cccc(N2CCNCC2)c1` [mCPP], for which the figures for the Ki at PCT-65 receptor [1] and on PCT-65 receptor [2] were 256 ± 9.9 nM and 352 ± 54.9 nM, respectively.
